Results as given in US20130029970A1 (priority 2009, published 2013).

Key:
human CB2 receptors = target: T1, human CB2 receptors (Homo sapiens, UniProt P34972); experiment: cAMP assay in HEK-293 cells, hCB2 agonist; type: cell-based; conditions: inhibition of forskolin-stimulated cAMP, HEK-293 cells; for EC50: read-out: hCB2 EC50 (cAMP ag)
T1 construct: (cDNA clone) CNR0200000
In short: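 Stable hCB2 HEK-293 cells in HBSS/10 mM HEPES/0.1% fatty-acid-free BSA incubated 30 min at 37° C with compound; forskolin 90 uM in 3× compound mix.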

[1] = target: T2, recombinant human cannabinoid receptor CB2 (Homo sapiens, UniProt P34972); experiment: Cannabinoid receptor radioligand binding assay, [3H]-CP 55,940 displacement, hCB2
T2 construct: (cDNA clone) CNR0200000
In short: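 Receptor source: membrane pellet (40,000×g) from transfected cells, stored in HEPES pH 7.4/MgCl2/EDTA/sucrose buffer.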

[2] = target: T3, recombinant human cannabinoid receptor CB1 (Homo sapiens, UniProt P21554); experiment: Cannabinoid receptor radioligand binding assay, [3H]-CP 55,940 displacement, hCB1
T3 construct: (cDNA clone) CNR01L000
In short: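 Displacement of 0.5 nM [3H]-CP 55,940 (1 μM unlabeled CP 55,940 for nonspecific) measured by filtration and scintillation counting. Binding ran 90 min at room temperature in pH 7.5 Tris buffer with 0.1% fatty-acid-free BSA, using recombinant hCB1 HEK-293 membranes at 2-10 μg protein.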

T3 sequence (P21554 whole entry): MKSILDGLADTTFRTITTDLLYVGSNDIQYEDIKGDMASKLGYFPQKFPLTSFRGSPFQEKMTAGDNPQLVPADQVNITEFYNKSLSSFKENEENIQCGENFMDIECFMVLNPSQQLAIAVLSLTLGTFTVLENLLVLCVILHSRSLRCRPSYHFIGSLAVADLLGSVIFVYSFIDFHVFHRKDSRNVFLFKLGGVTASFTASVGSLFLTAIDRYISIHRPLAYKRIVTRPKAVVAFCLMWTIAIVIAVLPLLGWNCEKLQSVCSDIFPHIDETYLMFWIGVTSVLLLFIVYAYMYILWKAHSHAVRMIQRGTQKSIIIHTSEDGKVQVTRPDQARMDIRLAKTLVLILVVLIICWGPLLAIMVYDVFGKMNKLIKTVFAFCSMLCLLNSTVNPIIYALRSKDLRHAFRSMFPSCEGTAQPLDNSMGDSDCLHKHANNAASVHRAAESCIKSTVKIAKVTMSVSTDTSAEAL
T2 sequence (P34972 whole entry): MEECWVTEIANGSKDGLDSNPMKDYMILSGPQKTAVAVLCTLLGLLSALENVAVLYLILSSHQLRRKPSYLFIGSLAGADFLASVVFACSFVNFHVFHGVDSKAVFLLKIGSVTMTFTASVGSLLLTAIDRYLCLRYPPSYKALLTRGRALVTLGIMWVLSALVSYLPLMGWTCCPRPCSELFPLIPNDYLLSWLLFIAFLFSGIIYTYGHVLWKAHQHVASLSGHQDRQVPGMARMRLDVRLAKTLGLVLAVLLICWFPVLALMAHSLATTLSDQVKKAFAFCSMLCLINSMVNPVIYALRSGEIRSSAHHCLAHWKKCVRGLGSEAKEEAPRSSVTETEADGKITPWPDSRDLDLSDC
T1 sequence (P34972 whole entry): as above

| SMILES | EC50 (human CB2 receptors) [nM] | IC50 [1] [nM] | IC50 [2] [nM] | hCB2 EC50 (cAMP ag, nM) (human CB2 receptors) |
| --- | --- | --- | --- | --- |
| Cc1cc2cc(C(=O)c3cccc(Cl)c3)sc2n1CCN1CCOCC1 [Compound 4, (3-Chlorophenyl)(5-methyl-6-(2-morpholinoethyl)-6H-thieno[2,3-b]pyrrol-2-yl)methanone] | < 100 | 100 to 1000 | 1000 to 10000 | – |
| Cc1cc2cc(C(=O)c3ccccc3)sc2n1CCN1CCOCC1 [Compound 7, (5-Methyl-6-(2-morpholinoethyl)-6H-thieno[2,3-b]pyrrol-2-yl)(phenyl)methanone] | < 100 | 100 to 1000 | 1000 to 10000 | – |
| Cc1cc2cc(C(=O)c3ccc(Cl)cc3Cl)sc2n1CCN1CCOCC1 [Compound 10, (2,4-Dichlorophenyl)(5-methyl-6-(2-morpholinoethyl)-6H-thieno[2,3-b]pyrrol-2-yl)methanone] | < 100 | < 100 | 100 to 1000 | – |
| Cc1ccccc1C(=O)c1cc2cc(C)n(CCN3CCOCC3)c2s1 [Compound 12, (5-Methyl-6-(2-morpholinoethyl)-6H-thieno[2,3-b]pyrrol-2-yl)(o-tolyl)methanone] | < 100 | < 100 | 1000 to 10000 | – |
| CCn1c(C)cc2cc(C(=O)c3cccc(Cl)c3Cl)sc21 [Compound 19, (2,3-Dichlorophenyl)(6-ethyl-5-methyl-6H-thieno[2,3-b]pyrrol-2-yl)methanone] | < 100 | 100 to 1000 | > 10000 | – |
| CCS(=O)(=O)n1c(C)cc2cc(C(=O)c3cccc(Cl)c3Cl)sc21 [Compound 25, (2,3-Dichlorophenyl)(6-(ethylsulfonyl)-5-methyl-6H-thieno[2,3-b]pyrrol-2-yl)methanone] | < 100 | < 100 | 1000 to 10000 | – |
| COc1cccc(C(=O)c2cc3cc(C)n(CCN4CCOCC4)c3s2)c1 [Compound 26, (3-Methoxyphenyl)(5-methyl-6-(2-morpholinoethyl)-6H-thieno[2,3-b]pyrrol-2-yl)methanone] | < 100 | < 100 | 100 to 1000 | – |
| Cc1cc2cc(C(=O)c3cccc(Cl)c3Cl)sc2n1CCc1ccccc1 [Compound 30, (2,3-Dichlorophenyl)(5-methyl-6-phenethyl-6H-thieno[2,3-b]pyrrol-2-yl)methanone] | < 100 | < 100 | 100 to 1000 | – |
| Cc1cc2cc(C(=O)c3cccc(Cl)c3Cl)sc2n1CC1CCOCC1 [Compound 31, (2,3-Dichlorophenyl)(5-methyl-6-((tetrahydro-2H-pyran-4-yl)methyl)-6H-thieno[2,3-b]pyrrol-2-yl)methanone] | < 100 | < 100 | 100 to 1000 | – |
| Cc1cc2cc(Cc3cccc(Cl)c3Cl)sc2n1CCN1CCOCC1 [Compound 32, 4-(2-(2-(2,3-Dichlorobenzyl)-5-methyl-6H-thieno[2,3-b]pyrrol-6-yl)ethyl)morpholine] | < 100 | < 100 | 1000 to 10000 | – |
| Cc1cc2cc(C(=O)c3cccc(Cl)c3Cl)sc2n1CCN1CCN(C)CC1 [Compound 33, (2,3-Dichlorophenyl)(5-methyl-6-(2-(4-methylpiperazin-1-yl)ethyl)-6H-thieno[2,3-b]pyrrol-2-yl)methanone] | – | 1000 to 10000 | > 10000 | NS (NS means “Not Significant,” which means less than 30% agonist activity when compared to the positive control.) |
| Cc1cc2cc(C(=O)c3cccc(Cl)c3Cl)sc2n1CCCNS(C)(=O)=O [Compound 37, N-(3-(2-(2,3-Dichlorobenzoyl)-5-methyl-6H-thieno[2,3-b]pyrrol-6-yl)propyl)methanesulfonamide] | < 100 | < 100 | > 10000 | – |
| Cc1cc2cc(C(=O)c3cccc(Cl)c3Cl)sc2n1S(=O)(=O)C(C)C [Compound 38, (2,3-Dichlorophenyl)(6-(isopropylsulfonyl)-5-methyl-6H-thieno[2,3-b]pyrrol-2-yl)methanone] | < 100 | < 100 | 1000 to 10000 | – |
| CCS(=O)(=O)n1c(C)cc2cc(C(=O)c3ccccc3Cl)sc21 [Compound 42, (2-Chlorophenyl)(6-(ethylsulfonyl)-5-methyl-6H-thieno[2,3-b]pyrrol-2-yl)methanone] | < 100 | 100 to 1000 | 1000 to 10000 | – |
| CCS(=O)(=O)n1c(C)cc2cc(C(=O)c3cccnc3Cl)sc21 [Compound 43, (2-Chloropyridin-3-yl)(6-(ethylsulfonyl)-5-methyl-6H-thieno[2,3-b]pyrrol-2-yl)methanone] | < 100 | 100 to 1000 | > 10000 | – |
| COc1ccc(C(=O)c2cc3cc(C)n(CCCNS(C)(=O)=O)c3s2)cc1 [Compound 44, N-(3-(2-(4-methoxybenzoyl)-5-methyl-6H-thieno[2,3-b]pyrrol-6-yl)propyl)methanesulfonamide] | < 100 | < 100 | 1000 to 10000 | – |
| Cc1cc2cc(C(=O)c3cccc(Cl)c3Cl)sc2n1S(=O)(=O)N1CCOCC1 [Compound 45, (2,3-Dichlorophenyl)(5-methyl-6-(morpholinosulfonyl)-6H-thieno[2,3-b]pyrrol-2-yl)methanone] | < 100 | < 100 | < 100 | – |
| Cc1cc2cc(C(=O)c3cccc(Cl)c3Cl)sc2n1S(=O)(=O)CC1CCOCC1 [Compound 46, (2,3-Dichlorophenyl)(5-methyl-6-((tetrahydro-2H-pyran-4-yl)methylsulfonyl)-6H-thieno[2,3-b]pyrrol-2-yl)methanone] | < 100 | < 100 | < 100 | – |
| COc1ncccc1C(=O)c1cc2cc(C)n(CCN3CCOCC3)c2s1 [Compound 47, (2-Methoxypyridin-3-yl)(5-methyl-6-(2-morpholinoethyl)-6H-thieno[2,3-b]pyrrol-2-yl)methanone] | < 100 | 1000 to 10000 | > 10000 | – |
| COc1ccc(C(=O)c2cc3cc(C)n(S(=O)(=O)N(C)C)c3s2)cc1 [Compound 51, 2-(4-Methoxybenzoyl)-N,N,5-trimethyl-6H-thieno[2,3-b]pyrrole-6-sulfonamide] | < 100 | < 100 | 1000 to 10000 | – |
| COc1ccc(C(=O)c2cc3cc(C)n(S(=O)(=O)N4CCOCC4)c3s2)cc1 [Compound 53, (4-methoxyphenyl)(5-methyl-6-(morpholinosulfonyl)-6H-thieno[2,3-b]pyrrol-2-yl)methanone] | < 100 | < 100 | < 100 | – |
| Cc1cc2cc(C(=O)c3ccc(F)cc3)sc2n1CCN1CCOCC1 [Compound 54, (4-Fluorophenyl)(5-methyl-6-(2-morpholinoethyl)-6H-thieno[2,3-b]pyrrol-2-yl)methanone] | < 100 | 100 to 1000 | 1000 to 10000 | – |
| CCS(=O)(=O)n1c(C)cc2cc(C(=O)c3ccc(OC)cc3)sc21 [Compound 56, (6-(Ethylsulfonyl)-5-methyl-6H-thieno[2,3-b]pyrrol-2-yl)(4-methoxyphenyl)methanone] | < 100 | 100 to 1000 | > 10000 | – |
| COc1ccc(C(=O)c2cc3cc(C)n(S(=O)(=O)CC4CCOCC4)c3s2)cc1 [Compound 57, (4-Methoxyphenyl)(5-methyl-6-((tetrahydro-2H-pyran-4-yl)methylsulfonyl)-6H-thieno[2,3-b]pyrrol-2-yl)methanone] | < 100 | < 100 | < 100 | – |
| COc1ccc(C(=O)c2cc3cc(C)n(CCN4CCOCC4)c3s2)cn1 [Compound 58, (6-Methoxypyridin-3-yl)(5-methyl-6-(2-morpholinoethyl)-6H-thieno[2,3-b]pyrrol-2-yl)methanone] | < 100 | 100 to 1000 | > 10000 | – |
| Cc1cc2cc(C(=O)c3ccc(C(F)(F)F)cc3)sc2n1CCN1CCOCC1 [Compound 60, (5-Methyl-6-(2-morpholinoethyl)-6H-thieno[2,3-b]pyrrol-2-yl)(4-(trifluoromethyl)phenyl)methanone] | < 100 | 1000 to 10000 | > 10000 | – |
| COc1ccc(C(=O)c2cc3cc(C)n(CC4CCOCC4)c3s2)cc1 [Compound 62, (4-Methoxyphenyl)(5-methyl-6-((tetrahydro-2H-pyran-4-yl)methyl)-6H-thieno[2,3-b]pyrrol-2-yl)methanone] | < 100 | < 100 | 1000 to 10000 | – |
| COc1ccc(C(=O)c2cc3cc(C)n(CCN4CCCOCC4)c3s2)cn1 [Compound 158, (6-(2-(1,4-oxazepan-4-yl)ethyl)-5-methyl-6H-thieno[2,3-b]pyrrol-2-yl)(6-methoxypyridin-3-yl)methanone] | < 100 | – | 100 to 1000 | – |
| COc1ccc(C(=O)c2cc3cc(C)n(CCNC4CCOC4)c3s2)cn1 (stereo not drawn) [Compound 164, (6-methoxypyridin-3-yl)(5-methyl-6-(2-((tetrahydrofuran-3-yl)amino)ethyl)-6H-thieno[2,3-b]pyrrol-2-yl)methanone] | < 100 | – | 1000 to 10000 | – |
| COc1ccc(C(=O)c2cc3cc(C)n(CCN4CCCC4)c3s2)cn1 [Compound 167, (6-methoxypyridin-3-yl)(5-methyl-6-(2-(pyrrolidin-1-yl)ethyl)-6H-thieno[2,3-b]pyrrol-2-yl)methanone] | < 100 | – | < 100 | – |
